In patent publication US4746509A, “Transdermal medicament” (Rhone-Poulenc Sante, priority 1983, dated 1988) one finds solubility in water data, which are given here for one compound.

The nature of this series: Solubility in water. In kind it is physicochemical.

Structures can show the parent of a compound that is named as a salt.

Take `CCCC(=O)Nc1ccc(OCC(O)CNC(C)C)c(C(C)=O)c1` (stereo not shown) [acebutolol hydrochloride]: the solubility in water entry is on record as “soluble in water”.
